Experimental data taken from patent publication US20060167109A1, “Methods of reducing rhinovirus contagion and related compositions” (priority 2002, published 2006).

Columns and labels:
HRV serotype 18 = assay: HRV cytopathic effect assay; type: cell-based; settings: Human rhinovirus sp.
Method: (§1) For sensitivity testing to pleconaril, the appropriate cells were seeded into 96 well plates at a concentration of 4×10^4/well. After an overnight incubation at 37° C., the medium was removed and the cells were infected with 150 μL of a dilution of virus previously titrated to give ≧85% lysis of the monolayer after 3 days of incubation. The plates were incubated for 1 hour at the appropriate temperature and then overlaid with 50 μL of medium containing serial 2-fold dilutions of pleconaril in 2% DMSO. The final DMSO concentration in the assay was always 0.5%. No virus and no pleconaril controls were included on each plate. All drug concentrations were run in quadruplicate. The plates were then incubated for 3 days at the appropriate temperature followed by processing as described above.

HRV serotype 78 = assay: HRV cytopathic effect assay; type: cell-based; settings: Human rhinovirus sp.
Method: as §1

HRV serotype 89 = assay: HRV cytopathic effect assay; type: cell-based; settings: Human rhinovirus sp.
Method: as §1

HRV serotype 35 = assay: HRV cytopathic effect assay; type: cell-based; settings: Human rhinovirus sp.
Method: as §1

HRV serotype 86 = assay: HRV cytopathic effect assay; type: cell-based; settings: Human rhinovirus sp.
Method: as §1

HRV serotype 24 = assay: HRV cytopathic effect assay; type: cell-based; settings: Human rhinovirus sp.
Method: as §1

HRV serotype 56 = assay: HRV cytopathic effect assay; type: cell-based; settings: Human rhinovirus sp.
Method: as §1

HRV serotype 76 = assay: HRV cytopathic effect assay; type: cell-based; settings: Human rhinovirus sp.
Method: as §1

HRV serotype 51 = assay: HRV cytopathic effect assay; type: cell-based; settings: Human rhinovirus sp.
Method: as §1

HRV serotype 93 = assay: HRV cytopathic effect assay; type: cell-based; settings: Human rhinovirus sp.
Method: as §1

HRV serotype 49 = assay: HRV cytopathic effect assay; type: cell-based; settings: Human rhinovirus sp.
Method: as §1

HRV serotype 4 = assay: HRV cytopathic effect assay; type: cell-based; settings: Human rhinovirus sp.
Method: as §1

HRV serotype 22 = assay: HRV cytopathic effect assay; type: cell-based; settings: Human rhinovirus sp.
Method: as §1

HRV serotype 62 = assay: HRV cytopathic effect assay; type: cell-based; settings: Human rhinovirus sp.
Method: as §1

HRV serotype 99 = assay: HRV cytopathic effect assay; type: cell-based; settings: Human rhinovirus sp.
Method: as §1

HRV serotype 14 = assay: HRV cytopathic effect assay; type: cell-based; settings: Human rhinovirus sp.
Method: as §1

HRV serotype 87 = assay: HRV cytopathic effect assay; type: cell-based; settings: Human rhinovirus sp.
Method: as §1

HRV serotype 65 = assay: HRV cytopathic effect assay; type: cell-based; settings: Human rhinovirus sp.
Method: as §1

HRV serotype 37 = assay: HRV cytopathic effect assay; type: cell-based; settings: Human rhinovirus sp.
Method: as §1

HRV serotype 28 = assay: HRV cytopathic effect assay; type: cell-based; settings: Human rhinovirus sp.
Method: as §1

HRV serotype 33 = assay: HRV cytopathic effect assay; type: cell-based; settings: Human rhinovirus sp.
Method: as §1

HRV serotype 54 = assay: HRV cytopathic effect assay; type: cell-based; settings: Human rhinovirus sp.
Method: as §1

HRV serotype 46 = assay: HRV cytopathic effect assay; type: cell-based; settings: Human rhinovirus sp.
Method: as §1

HRV serotype 32 = assay: HRV cytopathic effect assay; type: cell-based; settings: Human rhinovirus sp.
Method: as §1

HRV serotype 34 = assay: HRV cytopathic effect assay; type: cell-based; settings: Human rhinovirus sp.
Method: as §1

HRV serotype 73 = assay: HRV cytopathic effect assay; type: cell-based; settings: Human rhinovirus sp.
Method: as §1

HRV serotype 96 = assay: HRV cytopathic effect assay; type: cell-based; settings: Human rhinovirus sp.
Method: as §1

HRV serotype 85 = assay: HRV cytopathic effect assay; type: cell-based; settings: Human rhinovirus sp.
Method: as §1

HRV serotype 94 = assay: HRV cytopathic effect assay; type: cell-based; settings: Human rhinovirus sp.
Method: as §1

[1] = Clinical pharmacokinetics: food effect, linearity, renal excretion; type: in vivo, human
Method: Pleconaril was administered with food in all Phase II and III clinical studies conducted by Applicants.
Pleconaril has a volume of distribution (Vz/F) that is consistent with significant tissue distribution despite the fact that pleconaril is highly bound (>99%) to plasma protein. Pleconaril is a low systemic clearance drug. Renal clearance contributes insignificantly to the systemic clearance of pleconaril. Less than 1% of the dose is excreted unchanged as pleconaril in urine.

log P = type: physicochemical
HRV3 = assay: Time of drug addition; type: cell-based, human rhinovirus
Method: To determine the stage in the virus replication cycle that is affected by pleconaril, time of drug addition studies were conducted. Pleconaril was added to cells either during viral attachment or at various times thereafter. Viral replication was allowed to proceed for a single cycle of growth (10-12 hours), at which time the cells were lysed by a freeze-thaw cycle, residual pleconaril was removed by chloroform extraction, and virus yield was determined in the cytopathic effect assay. A 2 μM concentration of pleconaril inhibited greater than 90% of the yield of HRV3 from a single cycle of growth if present during the virus attachment period.
Twenty-four well plates (Costar 3524) of HeLa cells were infected in duplicate with 250 μL of HRV3 in M199 medium with 5% FBS at a multiplicity of infection (MOI) of approximately 1 PFU/cell for 1 hour at room temperature. During a treatment (the “−1 h” timepoint), one set of duplicate wells for each virus received 2 μM pleconaril, while the remaining wells received DMSO (0.5% final concentration). After attachment, the cells were washed twice with 1 mL of DPBS, and then overlaid with fresh medium. Pleconaril (2 μM final concentration) was added to the wells at the indicated times. The plates were incubated at 33° C. (HRV3) for 10 hours, at which time they were frozen at −80° C. […]

Cc1cc(CCCOc2c(C)cc(-c3noc(C(F)(F)F)n3)cc2C)on1 [pleconaril, 3-[3,5-dimethyl-4-[3-(3-methyl-5-isoxazolyl)propoxy]phenyl]-5-(trifluoromethyl)-1,2,4-oxadiazole]
IC50 (HRV serotype 18): 240 ± 100 nM | IC50 (HRV serotype 78): 80 ± 40 nM | IC50 (HRV serotype 89; HRV89, Table 2, mean of at least two independent determinations): 50 ± 10 nM | IC50 (HRV serotype 89; serotype 89): 50 ± 10 nM | IC50 (HRV serotype 35): 40 ± 10 nM | IC50 (HRV serotype 86): 130 ± 100 nM | IC50 (HRV serotype 24): 210 ± 20 nM | IC50 (HRV serotype 56): 110 ± 60 nM | IC50 (HRV serotype 76): 240 ± 290 nM | IC50 (HRV serotype 51): 50 ± 30 nM | IC50 (HRV serotype 93): > 12500 nM | IC50 (HRV serotype 49): 170 ± 60 nM | IC50 (HRV serotype 4): > 12500 nM | IC50 (HRV serotype 22): 40 ± 20 nM | IC50 (HRV serotype 62): 160 ± 60 nM | IC50 (HRV serotype 99): > 12500 nM | IC50 (HRV serotype 14; HRV14, Table 2, mean of at least two independent determinations): 160 ± 90 nM | IC50 (HRV serotype 14; serotype 14): 160 ± 90 nM | IC50 (HRV serotype 87): > 12500 nM | IC50 (HRV serotype 65): 330 ± 100 nM | IC50 (HRV serotype 37): 60 ± 20 nM | IC50 (HRV serotype 28): 200 ± 70 nM | IC50 (HRV serotype 33): 160 ± 30 nM | IC50 (HRV serotype 54): 460 ± 110 nM | IC50 (HRV serotype 46): 160 ± 50 nM | IC50 (HRV serotype 32): 330 ± 130 nM | IC50 (HRV serotype 34): 90 ± 20 nM | IC50 (HRV serotype 73): 210 ± 90 nM | IC50 (HRV serotype 96): 90 ± 50 nM | IC50 (HRV serotype 85): 50 ± 20 nM | IC50 (HRV serotype 94): 1100 ± 440 nM | pharmacokinetic profile, dose dependence ([1]; plasma concentration range exceeding the proposed regimen by approximately 2-fold): dose proportional and linear | dose excreted unchanged as pleconaril in urine ([1]; urine): Less than 1% | increase of absorption when administered with food ([1]; with food): 3-4 fold | log P (log P): high | reduction in virus yield (HRV3; 2 μM, drug addition after attachment (0 hour timepoint)): < 1 log10 | inhibition at 2 µM (HRV3; Human rhinovirus sp., HRV3, present during the virus attachment period, read-out: inhibition of the yield of HRV3 from a single cycle of growth): > 90%
